Reference: ChEMBL document CHEMBL4325871 (Eur J Med Chem, 2019)

Assays:
[1] = biological target: T1, Serine/threonine-protein kinase Chk1 (Homo sapiens) (UniProt O14757); assay: Inhibition of CHK1 phosphorylation at S345 residue in human FOLFOX-resistant HCT116 cells after 24 hrs by Western blot analysis
T1 sequence (whole entry): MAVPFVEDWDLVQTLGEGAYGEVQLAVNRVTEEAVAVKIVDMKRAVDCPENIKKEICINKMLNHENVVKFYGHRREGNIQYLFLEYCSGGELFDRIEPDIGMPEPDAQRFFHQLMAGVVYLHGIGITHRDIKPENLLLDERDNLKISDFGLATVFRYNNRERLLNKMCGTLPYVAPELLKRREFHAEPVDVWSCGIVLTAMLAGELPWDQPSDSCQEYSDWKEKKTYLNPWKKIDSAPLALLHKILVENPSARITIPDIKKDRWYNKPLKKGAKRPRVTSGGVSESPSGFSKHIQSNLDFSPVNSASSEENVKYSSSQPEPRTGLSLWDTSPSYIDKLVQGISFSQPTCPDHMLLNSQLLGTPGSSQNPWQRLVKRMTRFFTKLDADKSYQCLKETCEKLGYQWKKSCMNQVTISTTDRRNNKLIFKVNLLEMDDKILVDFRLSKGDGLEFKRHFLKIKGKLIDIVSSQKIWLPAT

[2] = biological target: Hepatocyte growth factor receptor (Homo sapiens) (UniProt P08581); assay: Inhibition of human c-MET assessed as residual activity at 1 uM using KKKSPGEYVNIEFG as substrate by [gamma-33P]-ATP assay relative to control
[3] = biological target: Calcium/calmodulin-dependent protein kinase type 1B (Homo sapiens) (UniProt Q6P2M8); assay: Inhibition of human CAMK1B assessed as residual activity at 1 uM using KKALRRQETVDAL as substrate by [gamma-33P]-ATP assay relative to control
[4] = biological target: CDC7/DBF4 (Cell division cycle 7-related protein kinase/Activator of S phase kinase) (Homo sapiens) (UniProt Q9UBU7+O00311); assay: Inhibition of human CDC7/DBF4 assessed as residual activity at 1 uM using KTFCGTPEYLAPEVRREPRILSEEEQEMFRDFDYIADWC as substrate by [gamma-33P]-ATP assay relative to control; format: protein-complex assay
[5] = biological target: Cyclin-dependent kinase 14/Cyclin-Y (Homo sapiens) (UniProt O94921+Q8ND76); assay: Inhibition of human CDK14/cyclin-Y assessed as residual activity at 1 uM using RB protein as substrate by [gamma-33P]-ATP assay relative to control; format: protein-complex assay
[6] = biological target: CDK9/Cyclin-T2 (Homo sapiens) (UniProt P50750+O60583); assay: Inhibition of human CDK9/cyclin-T2 assessed as residual activity at 1 uM using KTFCGTPEYLAPEVRREPRILSEEEQEMFRDFDYIADWC as substrate by [gamma-33P]-ATP assay relative to control; format: protein-complex assay
[7] = biological target: Vascular endothelial growth factor receptor 1 (Homo sapiens) (UniProt P17948); assay: Inhibition of human FLT1 assessed as residual activity at 1 uM using poly[Glu:Tyr] (4:1) as substrate by [gamma-33P]-ATP assay relative to control
[8] = biological target: Casein kinase I isoform alpha (Homo sapiens) (UniProt P48729); assay: Inhibition of human CK1a1 assessed as residual activity at 1 uM using KRRRAL[pS]VASLPGL as substrate by [gamma-33P]-ATP assay relative to control
[9] = biological target: Serine/threonine-protein kinase DCLK2 (Homo sapiens) (UniProt Q8N568); assay: Inhibition of human DCAMKL2 assessed as residual activity at 1 uM using KKLNRTLSFAEPG as substrate by [gamma-33P]-ATP assay relative to control
[10] = biological target: Mitogen-activated protein kinase kinase kinase 12 (Homo sapiens) (UniProt Q12852); assay: Inhibition of human DLK assessed as residual activity at 1 uM using MBP as substrate by [gamma-33P]-ATP assay relative to control
[11] = biological target: Dual specificity tyrosine-phosphorylation-regulated kinase 1A (Homo sapiens) (UniProt Q13627); assay: Inhibition of human DYRK1A assessed as residual activity at 1 uM using RRRFRPASPLRGPPK as substrate by [gamma-33P]-ATP assay relative to control
[12] = biological target: Rhodopsin kinase GRK1 (Homo sapiens) (UniProt Q15835); assay: Inhibition of human GRK1 assessed as residual activity at 1 uM using casein as substrate by [gamma-33P]-ATP assay relative to control
[13] = biological target: Insulin receptor (Homo sapiens) (UniProt P06213); assay: Inhibition of human IR assessed as residual activity at 1 uM using poly[Glu:Tyr] (4:1) as substrate by [gamma-33P]-ATP assay relative to control
[14] = biological target: Tyrosine-protein kinase JAK1 (Homo sapiens) (UniProt P23458); assay: Inhibition of human JAK1 assessed as residual activity at 1 uM using poly[Glu:Tyr] (4:1) as substrate by [gamma-33P]-ATP assay relative to control
[15] = biological target: Serine/threonine-protein kinase STK11 (Homo sapiens) (UniProt Q15831); assay: Inhibition of human LKB1 assessed as residual activity at 1 uM using LSNLYHQGKFLQTFCGSPLYRRR as substrate by [gamma-33P]-ATP assay relative to control
[16] = biological target: Serine/threonine-protein kinase Nek3 (Homo sapiens) (UniProt P51956); assay: Inhibition of human NEK3 assessed as residual activity at 1 uM using MBP as substrate by [gamma-33P]-ATP assay relative to control
[17] = biological target: Protein kinase C alpha type (Homo sapiens) (UniProt P17252); assay: Inhibition of human PKCalpha assessed as residual activity at 1 uM using ERMRPRKRQGSVRRRV as substrate by [gamma-33P]-ATP assay relative to control
[18] = biological target: Protein kinase C epsilon type (Homo sapiens) (UniProt Q02156); assay: Inhibition of human PKCepsilon assessed as residual activity at 1 uM using ERMRPRKRQGSVRRRV as substrate by [gamma-33P]-ATP assay relative to control
[19] = biological target: Serine/threonine-protein kinase TAO1 (Homo sapiens) (UniProt Q7L7X3); assay: Inhibition of human TAOK1 assessed as residual activity at 1 uM using MBP as substrate by [gamma-33P]-ATP assay relative to control
[20] = biological target: Angiopoietin-1 receptor (Homo sapiens) (UniProt Q02763); assay: Inhibition of human TIE2 assessed as residual activity at 1 uM using poly[Glu:Tyr] (4:1) as substrate by [gamma-33P]-ATP assay relative to control
[21] = biological target: Serine/threonine-protein kinase tousled-like 2 (Homo sapiens) (UniProt Q86UE8); assay: Inhibition of human TLK2 assessed as residual activity at 1 uM using casein as substrate by [gamma-33P]-ATP assay relative to control
[22] = biological target: Serine/threonine-protein kinase WNK1 (Homo sapiens) (UniProt Q9H4A3); assay: Inhibition of human WNK1 assessed as residual activity at 1 uM using MBP as substrate by [gamma-33P]-ATP assay relative to control

Sequence of Insulin receptor (Homo sapiens) (P06213 28-758 limits assumed): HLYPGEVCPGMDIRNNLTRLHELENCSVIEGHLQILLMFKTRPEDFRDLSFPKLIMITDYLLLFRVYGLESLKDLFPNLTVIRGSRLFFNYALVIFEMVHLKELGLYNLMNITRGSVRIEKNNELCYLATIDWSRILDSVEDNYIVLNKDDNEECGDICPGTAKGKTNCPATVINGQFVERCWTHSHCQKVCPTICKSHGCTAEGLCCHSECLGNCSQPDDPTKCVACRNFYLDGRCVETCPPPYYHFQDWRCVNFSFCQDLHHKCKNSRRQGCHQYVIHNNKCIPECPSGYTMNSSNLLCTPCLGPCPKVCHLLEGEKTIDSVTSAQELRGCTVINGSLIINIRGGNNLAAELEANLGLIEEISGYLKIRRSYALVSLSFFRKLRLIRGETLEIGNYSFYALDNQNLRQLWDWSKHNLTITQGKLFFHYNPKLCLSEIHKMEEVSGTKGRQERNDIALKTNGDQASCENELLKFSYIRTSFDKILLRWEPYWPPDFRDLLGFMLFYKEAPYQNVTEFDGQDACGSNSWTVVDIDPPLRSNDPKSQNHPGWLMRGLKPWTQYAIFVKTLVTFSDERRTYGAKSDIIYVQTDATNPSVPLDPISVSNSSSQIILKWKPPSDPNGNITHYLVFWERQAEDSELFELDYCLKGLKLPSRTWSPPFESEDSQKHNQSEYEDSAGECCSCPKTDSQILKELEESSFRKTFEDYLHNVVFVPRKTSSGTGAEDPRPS
Sequence of Insulin receptor (Homo sapiens) (P06213 763-1382 limits assumed): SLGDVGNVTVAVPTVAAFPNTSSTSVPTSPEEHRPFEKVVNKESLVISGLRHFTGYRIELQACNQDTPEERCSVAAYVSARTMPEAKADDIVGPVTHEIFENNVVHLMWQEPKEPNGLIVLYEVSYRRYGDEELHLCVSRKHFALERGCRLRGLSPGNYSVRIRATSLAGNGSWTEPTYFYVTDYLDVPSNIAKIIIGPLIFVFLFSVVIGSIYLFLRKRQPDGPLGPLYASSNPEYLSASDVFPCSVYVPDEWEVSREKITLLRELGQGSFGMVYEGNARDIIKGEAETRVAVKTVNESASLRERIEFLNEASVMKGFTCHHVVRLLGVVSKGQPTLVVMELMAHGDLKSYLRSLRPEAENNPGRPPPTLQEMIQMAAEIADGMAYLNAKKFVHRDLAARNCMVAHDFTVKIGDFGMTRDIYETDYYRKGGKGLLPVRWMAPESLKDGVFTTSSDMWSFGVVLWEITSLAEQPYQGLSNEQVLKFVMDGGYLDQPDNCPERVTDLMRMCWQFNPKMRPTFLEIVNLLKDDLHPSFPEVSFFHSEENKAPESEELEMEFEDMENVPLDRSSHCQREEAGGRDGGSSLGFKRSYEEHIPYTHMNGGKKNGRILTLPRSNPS
Sequence of Vascular endothelial growth factor receptor 1 (Homo sapiens) (P17948 whole entry, canonical isoform): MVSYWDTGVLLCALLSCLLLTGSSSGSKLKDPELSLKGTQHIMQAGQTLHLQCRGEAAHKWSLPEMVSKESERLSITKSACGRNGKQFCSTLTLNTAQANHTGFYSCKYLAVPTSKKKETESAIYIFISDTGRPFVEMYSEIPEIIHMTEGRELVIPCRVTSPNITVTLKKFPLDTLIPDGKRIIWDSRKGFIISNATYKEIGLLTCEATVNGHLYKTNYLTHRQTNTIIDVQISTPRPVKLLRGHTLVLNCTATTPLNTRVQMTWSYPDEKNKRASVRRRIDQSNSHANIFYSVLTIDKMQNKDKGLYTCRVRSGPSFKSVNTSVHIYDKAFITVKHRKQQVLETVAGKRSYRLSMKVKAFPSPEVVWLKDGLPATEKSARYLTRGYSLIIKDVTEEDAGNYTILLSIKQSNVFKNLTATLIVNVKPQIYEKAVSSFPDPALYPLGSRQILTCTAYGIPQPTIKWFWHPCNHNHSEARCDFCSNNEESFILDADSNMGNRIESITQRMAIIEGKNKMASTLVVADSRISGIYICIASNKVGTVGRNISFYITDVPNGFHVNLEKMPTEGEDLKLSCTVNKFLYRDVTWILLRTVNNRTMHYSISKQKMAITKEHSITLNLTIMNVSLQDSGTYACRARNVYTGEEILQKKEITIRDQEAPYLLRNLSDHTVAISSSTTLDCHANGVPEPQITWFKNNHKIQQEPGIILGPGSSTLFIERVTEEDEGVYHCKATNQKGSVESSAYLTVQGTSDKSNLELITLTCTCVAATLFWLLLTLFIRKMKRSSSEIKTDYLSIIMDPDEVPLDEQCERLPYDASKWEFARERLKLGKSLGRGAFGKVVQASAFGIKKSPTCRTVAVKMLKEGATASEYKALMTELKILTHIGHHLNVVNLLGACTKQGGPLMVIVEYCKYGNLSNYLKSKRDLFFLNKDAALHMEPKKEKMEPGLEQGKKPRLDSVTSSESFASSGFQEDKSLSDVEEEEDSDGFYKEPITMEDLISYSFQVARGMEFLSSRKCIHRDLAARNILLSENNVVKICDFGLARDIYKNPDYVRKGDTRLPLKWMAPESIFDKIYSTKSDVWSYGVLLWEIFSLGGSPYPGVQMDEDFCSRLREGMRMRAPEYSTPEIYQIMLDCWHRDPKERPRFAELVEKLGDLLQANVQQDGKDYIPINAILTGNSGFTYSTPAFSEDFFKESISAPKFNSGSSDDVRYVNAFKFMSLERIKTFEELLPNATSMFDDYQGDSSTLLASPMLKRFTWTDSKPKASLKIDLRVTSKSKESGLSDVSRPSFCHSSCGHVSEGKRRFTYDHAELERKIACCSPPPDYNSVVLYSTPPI
Sequence of Serine/threonine-protein kinase TAO1 (Homo sapiens) (Q7L7X3 whole entry): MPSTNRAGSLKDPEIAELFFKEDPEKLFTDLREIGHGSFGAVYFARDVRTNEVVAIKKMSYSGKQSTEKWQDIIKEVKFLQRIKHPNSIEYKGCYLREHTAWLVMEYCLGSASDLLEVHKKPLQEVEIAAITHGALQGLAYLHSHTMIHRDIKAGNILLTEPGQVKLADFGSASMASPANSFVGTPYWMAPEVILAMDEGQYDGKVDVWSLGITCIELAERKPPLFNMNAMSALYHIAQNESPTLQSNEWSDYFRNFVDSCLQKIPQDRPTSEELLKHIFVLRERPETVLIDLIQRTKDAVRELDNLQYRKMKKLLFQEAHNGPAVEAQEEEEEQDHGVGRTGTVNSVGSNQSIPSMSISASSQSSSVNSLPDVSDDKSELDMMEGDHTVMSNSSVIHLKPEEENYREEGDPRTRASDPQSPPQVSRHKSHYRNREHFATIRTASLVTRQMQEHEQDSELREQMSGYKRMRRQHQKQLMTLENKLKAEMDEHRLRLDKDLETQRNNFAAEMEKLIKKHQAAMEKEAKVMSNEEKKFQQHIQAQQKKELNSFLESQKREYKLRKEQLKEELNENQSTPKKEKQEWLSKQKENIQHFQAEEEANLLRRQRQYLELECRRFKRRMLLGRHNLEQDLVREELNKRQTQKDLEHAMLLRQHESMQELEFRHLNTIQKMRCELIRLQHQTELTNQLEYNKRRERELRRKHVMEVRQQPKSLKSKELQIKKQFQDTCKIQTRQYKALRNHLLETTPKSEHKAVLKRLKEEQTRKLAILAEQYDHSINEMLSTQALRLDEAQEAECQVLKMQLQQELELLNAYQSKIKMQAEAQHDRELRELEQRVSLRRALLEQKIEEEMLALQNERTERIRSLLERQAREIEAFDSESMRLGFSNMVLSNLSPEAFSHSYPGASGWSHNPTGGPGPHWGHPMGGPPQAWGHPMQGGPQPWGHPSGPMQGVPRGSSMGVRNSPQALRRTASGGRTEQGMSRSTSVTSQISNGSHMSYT
Sequence of Mitogen-activated protein kinase kinase kinase 12 (Homo sapiens) (Q12852 whole entry): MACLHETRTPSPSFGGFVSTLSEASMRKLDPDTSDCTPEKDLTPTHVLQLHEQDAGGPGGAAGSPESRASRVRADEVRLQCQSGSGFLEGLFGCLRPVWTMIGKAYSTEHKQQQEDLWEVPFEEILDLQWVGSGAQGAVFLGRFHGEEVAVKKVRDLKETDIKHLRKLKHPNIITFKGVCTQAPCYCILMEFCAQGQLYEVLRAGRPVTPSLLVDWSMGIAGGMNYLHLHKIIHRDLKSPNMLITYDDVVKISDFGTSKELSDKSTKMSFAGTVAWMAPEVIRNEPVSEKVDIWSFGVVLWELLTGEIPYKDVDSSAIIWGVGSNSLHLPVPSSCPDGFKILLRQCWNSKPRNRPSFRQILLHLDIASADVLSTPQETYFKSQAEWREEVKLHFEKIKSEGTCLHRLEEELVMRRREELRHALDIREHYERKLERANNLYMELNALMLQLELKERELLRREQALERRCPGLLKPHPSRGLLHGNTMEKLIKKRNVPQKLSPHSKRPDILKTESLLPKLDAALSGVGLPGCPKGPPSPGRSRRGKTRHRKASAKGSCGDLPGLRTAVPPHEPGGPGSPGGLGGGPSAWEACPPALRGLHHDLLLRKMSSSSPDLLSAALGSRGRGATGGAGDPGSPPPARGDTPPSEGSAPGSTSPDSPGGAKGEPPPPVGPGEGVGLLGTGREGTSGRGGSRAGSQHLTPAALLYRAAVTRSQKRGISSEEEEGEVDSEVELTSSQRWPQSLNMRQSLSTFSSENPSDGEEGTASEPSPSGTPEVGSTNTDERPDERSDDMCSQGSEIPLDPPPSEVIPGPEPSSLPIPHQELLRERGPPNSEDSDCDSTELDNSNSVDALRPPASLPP
Sequence of Serine/threonine-protein kinase STK11 (Homo sapiens) (Q15831 whole entry): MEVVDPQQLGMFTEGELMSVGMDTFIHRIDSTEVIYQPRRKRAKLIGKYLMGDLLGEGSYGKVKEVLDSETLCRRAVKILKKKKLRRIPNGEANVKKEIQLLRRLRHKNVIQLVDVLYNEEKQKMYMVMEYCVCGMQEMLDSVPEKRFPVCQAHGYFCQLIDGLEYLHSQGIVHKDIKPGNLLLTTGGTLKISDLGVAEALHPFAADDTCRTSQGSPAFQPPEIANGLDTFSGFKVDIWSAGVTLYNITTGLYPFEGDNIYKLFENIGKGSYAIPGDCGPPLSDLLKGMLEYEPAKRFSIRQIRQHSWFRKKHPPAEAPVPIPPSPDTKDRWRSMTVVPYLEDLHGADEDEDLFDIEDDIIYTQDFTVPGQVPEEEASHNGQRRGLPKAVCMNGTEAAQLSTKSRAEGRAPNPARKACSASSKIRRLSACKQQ

Row | Structure (SMILES) | inhibition [1] | Activity [2] | Activity [3] | Activity [4] | Activity [5] | Activity [6] | Activity [7] | Activity [8] | Activity [9] | Activity [10] | Activity [11] | Activity [12] | Activity [13] | Activity [14] | Activity [15] | Activity [16] | Activity [17] | Activity [18] | Activity [19] | Activity [20] | also measured
1 | C(=C\c1ccccc1)/C[N+]12CN3CN(CN(C3)C1)C2 | Dose-dependent effect | 78.7 to 88% | 80.5 to 87.2% | 94 to 94.4% | 95.2 to 96.5% | 87 to 94.5% | 96.1 to 97.1% | 94.9 to 96.5% | 89.2 to 89.7% | 88.4 to 93.3% | 95.8 to 96.4% | 88.5 to 88.9% | 96 to 96.4% | 92.4 to 92.6% | 89.2 to 92.2% | 88.4 to 92.3% | 94 to 95.2% | 121 to 126% | 94.8 to 96% | 91.4 to 93.7% | Activity [21]: 87.9 to 91.1%; Activity [22]: 93.6 to 94.3%
2 | ClC/C=C/C[N+]12CN3CN(CN(C3)C1)C2 | Dose-dependent effect | 84.9 to 90.2% | 87.8 to 88.7% | 93.8 to 95.8% | 96.5 to 97.3% | 95.7 to 97.6% | 94.7 to 95.5% | 95.6 to 96.5% | 92.3 to 92.9% | 71.9 to 74.8% | 95.7 to 95.8% | 88.2 to 88.7% | 95 to 96.7% | 92.7 to 94.5% | 92 to 94.8% | 86.9 to 92.5% | 93.9 to 94.3% | 121 to 133% | 95.7 to 96.8% | 95.9 to 96% | Activity [21]: 91.2 to 91.8%; Activity [22]: 92.5 to 94.9%
